Experimental data taken from patent publication US10076519B2 (CYTOKINETICS, INC., priority 2010, dated 2018).

These compounds were tested on rabbit skeletal myofibrils (fast skeletal myofibrils) (assay: Activation of fast skeletal myofibrils (PUMA assay, PK/LDH-coupled ATPase at pCa25)). Settings: AC1.4 determined according to the procedure of Example 39; reported as class symbols.
Format: biochemical
Outline: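 ATPase activity of Triton-washed rabbit skeletal myofibrils, roughly 90% fast fibres, tracked by NADH loss at 340 nm through a PK/LDH-coupled ADP-regenerating system. Calcium set to 25% of maximal activity (pCa25), in PIPES 12 mM pH 6.8 with 2 mM MgCl2 and 1 mM DTT; AC1.4 reported.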

Compound	Mean AC1.4
CS(=O)(=O)N1CC(CNc2ccc(-c3ccc4[nH]ncc4c3)nn2)(c2ncccc2F)C1 [3-(3-fluoro(2-pyridyl))-3-{[(6-(1H-indazol-5-yl)pyridazin-3-yl)amino]methyl}-1-(methylsulfonyl)azetidine]	D (D=>20 uM)
CC(C)(CNc1nnc(-c2cccc(C(N)=O)c2)cc1C#N)c1ccc(F)cc1 [3-(5-cyano-6-{[2-(4-fluorophenyl)-2-methylpropyl]amino}pyridazin-3-yl)benzamide]	C (C=10-20 uM)
CC(C)(CNc1ccc(-c2cccc(C(N)=O)c2)nn1)c1ccc(F)cc1F [3-(6-{[2-(2,4-difluorophenyl)-2-methylpropyl]amino}pyridazin-3-yl)benzamide]	B (B=1-10 uM)
CC(C)(CNc1ccc(-c2cccc(C(N)=O)c2)nn1)c1ccccc1Cl [3-(6-{[2-(2-chlorophenyl)-2-methylpropyl]amino}pyridazin-3-yl)benzamide]	A (A=<1 uM)
CCC(CNc1ccc(-c2cccc(C(N)=O)c2)nn1)c1ccccc1F (stereo not shown) [3-(6-{[2-(2-fluoro-phenyl)butyl]amino}pyridazin-3-yl)benzamide]	B (B=1-10 uM)
CC(C)(CNc1ccc(-c2cccc(C(N)=O)c2)nn1)c1ccccc1F [3-(6-{[2-(2-fluorophenyl)-2-methylpropyl]amino}pyridazin-3-yl)benzamide]	A (A=<1 uM)
COCCC(CNc1ccc(-c2cccc(C(N)=O)c2)nn1)c1ccccc1F (stereo not shown) [3-(6-{[2-(2-fluorophenyl)-4-methoxybutyl]amino}pyridazin-3-yl)benzamide]	D (D=>20 uM)
CC(C)(CNc1ccc(-c2cccc(C(N)=O)c2)nn1)c1ncc(F)cc1F [3-(6-{[2-(3,5-difluoro(2-pyridyl))-2-methylpropyl]amino}pyridazin-3-yl)benzamide]	B (B=1-10 uM)
CC(C)(CNc1ccc(-c2cccc(C(N)=O)c2)nn1)c1ncccc1F [3-(6-{[2-(3-fluoro(2-pyridyl))-2-methylpropyl]amino}pyridazin-3-yl)benzamide]	B (B=1-10 uM)
CC(C)(CNc1ccc(-c2cccc(C(N)=O)c2)nn1)c1cccc(F)c1 [3-(6-{[2-(3-fluorophenyl)-2-methylpropyl]amino}pyridazin-3-yl)benzamide]	A (A=<1 uM)
CC(C)(CNc1ccc(-c2cccc(C(N)=O)c2)nn1)c1ccc(Cl)cc1 [3-(6-{[2-(4-chlorophenyl)-2-methylpropyl]amino}pyridazin-3-yl)benzamide]	B (B=1-10 uM)
Cc1cc(NCC(C)(C)c2ccc(F)cc2)nnc1-c1cccc(C(N)=O)c1 [3-(6-{[2-(4-fluorophenyl)-2-methylpropyl]amino}-4-methylpyridazin-3-yl)benzamide]	B (B=1-10 uM)
Cc1cc(NCC(C)(C)c2ccc(F)cc2)nnc1-c1cccc(C#N)c1 [3-(6-{[2-(4-fluorophenyl)-2-methylpropyl]amino}-4-methylpyridazin-3-yl)benzenecarbonitrile]	B (B=1-10 uM)
Cc1cc(-c2cccc(C(N)=O)c2)nnc1NCC(C)(C)c1ccc(F)cc1 [3-(6-{[2-(4-fluorophenyl)-2-methylpropyl]amino}-5-methylpyridazin-3-yl)benzamide]	B (B=1-10 uM)
Cc1cc(-c2cccc(C#N)c2)nnc1NCC(C)(C)c1ccc(F)cc1 [3-(6-{[2-(4-fluorophenyl)-2-methylpropyl]amino}-5-methylpyridazin-3-yl)benzenecarbonitrile]	C (C=10-20 uM)
CC(C)(CNc1ccc(-c2noc(C(N)=O)n2)nn1)c1ccc(F)cc1 [3-(6-{[2-(4-fluorophenyl)-2-methylpropyl]amino}pyridazin-3-yl)-1,2,4-oxadiazole-5-carboxamide]	C (C=10-20 uM)
CC(C)(CNc1ccc(-c2cccc(C(N)=O)c2)nn1)c1ccc(F)cc1 [3-(6-{[2-(4-fluorophenyl)-2-methylpropyl]amino}pyridazin-3-yl)benzamide]	A (A=<1 uM)
CC(C)(CNc1ccc(-c2cccc(C#N)c2)nn1)c1ccc(F)cc1 [3-(6-{[2-(4-fluorophenyl)-2-methylpropyl]amino}pyridazin-3-yl)benzenecarbonitrile]	B (B=1-10 uM)
CC(C)(CNc1ccc(-c2cccc(C(=O)N3CCOCC3)c2)nn1)c1ccc(F)cc1 [3-(6-{[2-(4-fluorophenyl)-2-methylpropyl]amino}pyridazin-3-yl)phenyl morpholin-4-yl ketone]	B (B=1-10 uM)
CC(C)(CNc1ccc(-c2cccc(C(=O)c3ccccc3)c2)nn1)c1ccc(F)cc1 [3-(6-{[2-(4-fluorophenyl)-2-methylpropyl]amino}pyridazin-3-yl)phenyl phenyl ketone]	D (D=>20 uM)
CC(C)(CNc1ccc(-c2cccc(C(=O)N3CCNCC3)c2)nn1)c1ccc(F)cc1 [3-(6-{[2-(4-fluorophenyl)-2-methylpropyl]amino}pyridazin-3-yl)phenyl piperazinyl ketone]	B (B=1-10 uM)

Same assay, conditions: median AC1.4 class, procedure of Example 39

Compound	Mean AC1.4
NC(=O)Cc1cnc(-c2ccc(NCC3(c4ncccc4F)CCC3)nn2)s1 [2-{2-[6-({[(3-fluoro-2-pyridyl)cyclobutyl]methyl}ami-no)pyridazin-3-yl]-1,3-thiazol-5-yl}acetamide]	B (B=1-10 uM)
CC(C)(O)c1cnc(-c2ccc(NCC3(c4ncccc4F)CCC3)nn2)s1 [2-{2-[6-({[(3-fluoro-2-pyridyl)cyclobutyl]methyl}ami-no)pyridazin-3-yl]-1,3-thiazol-5-yl}propan-2-ol]	C (C=10-20 uM)
NC(=O)Cn1nnc(-c2ccc(NCC3(c4ncccc4F)CCC3)nn2)n1 [2-{5-[6-({[(3-fluoro-2-pyridyl)cyclobutyl]methyl}ami-no)pyridazin-3-yl]-1,2,3,4-tetraazol-2-yl}acetamide]	D (D=>20 uM)
CC(C)(CNc1ccc(-c2ccc3[nH]nc(NCCO)c3c2)nn1)c1ccc(F)cc1 [2-{[5-(6-{[2-(4-fluorophenyl)-2-methylpropyl]amino}pyridazin-3-yl)-1H-indazol-3-yl]amino}ethan-1-ol]	A (A=<1 uM)
O=C(NCc1cnc(-c2ccc(NCC3(c4ncccc4F)CCC3)nn2)s1)c1cn[nH]n1 [2H-1,2,3-triazol-4-yl-N-({2-[6-({[(3-fluoro(2-pyridyl))cyclobutyl]methyl}ami-no)pyridazin-3-yl](1,3-thiazol-5-yl)}methyl)carboxamide]	A (A=<1 uM)
CC(C)(Nc1ccc(-c2cc(C(N)=O)ccc2F)nn1)c1ncccc1Cl [3-(6-{[1-(3-chloro(2-pyridyl))-isopropyl]amino}pyridazin-3-yl)-4-fluorobenzamide]	B (B=1-10 uM)
CC(C)(Nc1ccc(-c2cccc(C(N)=O)c2)nn1)c1cccc(F)c1 [3-(6-{[1-(3-fluorophenyl)-isopropyl]amino}pyridazin-3-yl)benzamide]	B (B=1-10 uM)
CC(C)(Nc1ccc(-c2cccc(C(N)=O)c2)nn1)c1ccc(F)cc1 [3-(6-{[1-(4-fluorophenyl)-isopropyl]amino}pyridazin-3-yl)benzamide]	B (B=1-10 uM)
CC(C)(CNc1ccc(-c2cc(C(N)=O)ccc2F)nn1)c1ncccc1Cl [3-(6-{[2-(3-chloro(2-pyridyl))-2-methylpropyl]amino}pyridazin-3-yl)-4-fluorobenzamide]	A (A=<1 uM)
CC(C)(CNc1ccc(-c2cc(C#N)ccc2F)nn1)c1ncccc1Cl [3-(6-{[2-(3-chloro(2-pyridyl))-2-methylpropyl]amino}pyridazin-3-yl)-4-fluorobenzenecarbonitrile]	B (B=1-10 uM)
CC(C)(CNc1ccc(-c2cccc(C(N)=O)c2)nn1)c1ncccc1Cl [3-(6-{[2-(3-chloro(2-pyridyl))-2-methylpropyl]amino}pyridazin-3-yl)benzamide]	A (A=<1 uM)
CC(C)(CNc1ccc(-c2cccc(C#N)c2)nn1)c1ncccc1Cl [3-(6-{[2-(3-chloro(2-pyridyl))-2-methylpropyl]amino}pyridazin-3-yl)benzenecarbonitrile]	B (B=1-10 uM)

Same assay, conditions: median AC1.4 reported as class; procedure of Example 39

Compound	Mean AC1.4
Cc1cc(NCC2(c3ncccc3F)CCC2)nnc1-c1ncc(CC(=O)O)s1 [2-{2-[6-({[(3-fluoro(2-pyridyl))cyclobutyl]methyl}amino)-4-methylpyridazin-3-yl]-1,3-thiazol-5-yl}acetic acid]	B (B=1-10 uM)
NC(=O)Cc1csc(-c2ccc(NCC3(c4ncccc4F)CCC3)nn2)n1 [2-{2-[6-({[(3-fluoro-2-pyridyl)cyclobutyl]methyl}ami-no)pyridazin-3-yl]-1,3-thiazol-4-yl}acetamide]	D (D=>20 uM)
O=C(O)Cc1cnc(-c2ccc(NCC3(c4ncccc4F)CCC3)nn2)s1 [2-{2-[6-({[(3-fluoro-2-pyridyl)cyclobutyl]methyl}ami-no)pyridazin-3-yl]-1,3-thiazol-5-yl}acetic acid]	B (B=1-10 uM)
NC(=O)Cc1ccc(F)c(-c2ccc(NCC3(c4ncccc4F)CCC3)nn2)c1 [2-{4-fluoro-3-[6-({[(3-fluoro(2-pyridyl))cyclobutyl]methyl}ami-no)pyridazin-3-yl]phenyl}acetamide]	B (B=1-10 uM)
NC(=O)c1csc(NC(=O)c2ccc(NCC3(c4ncccc4F)CCC3)nn2)n1 [2-{[6-({[(3-fluoro-2-pyridyl)cyclobutyl]methyl}ami-no)pyridazin-3-yl]carbonylamino}-1,3-thiazole-4-carboxamide]	A (A=<1 uM)
NC(=O)C1CCCC1NC(=O)c1ccc(NCC2(c3ncccc3F)CCC2)nn1 (stereo not shown) [2-{[6-({[(3-fluoro-2-pyridyl)cyclobutyl]methyl}ami-no)pyridazin-3-yl]carbonylamino}cyclopentane-carboxamide]	D (D=>20 uM)
NC(=O)c1coc(NC(=O)c2ccc(NCC3(c4ncccc4F)CCC3)nn2)n1 [2-{[6-({[(3-fluoro-2-pyridyl)cyclobutyl]methyl}amino)pyr-idazin-3-yl]carbonylamino}-1,3-oxazole-4-carboxamide]	D (D=>20 uM)
